According to patent US20170298090A1, “Modulators of ROR-gamma Receptors, Composition and Use Thereof” (KULING THERAPEUTICS, priority 2016, published 2017):
Entries after “also recorded” stand apart in the source; their conditions may differ. Where two headings read alike, the source gives them in different places.

What was measured:
Th17 cells [1] = assay: Th17 differentiation of mouse naive CD4+ T cells, IL-17/IL-17F intracellular staining; assay type: cell-based; conditions: for inhibition of TH17 differentiation (in words): 2-10 μM, in vitro culture; for IL-17 and IL-17F expression in Th17 cells (in words): FIG. 1
Description: T-cell Isolation and Differentiation—Mouse T cell differentiation was performed and analyzed by intracellular staining as described. […] The Journal of biological chemistry 286: 22707-22710 (2011); Wang, X., et al. Transcription of Il17 and Il17f is controlled by conserved noncoding sequence 2. Immunity 36: 23-31 (2012). Briefly, mouse naïve CD4^+ T cells (CD4^+CD25^−CD62L^hi-CD44^lo) were isolated from spleens and lymph nodes by FACS sorting. Th17 differentiation was performed with 15 ng ml^− IL-6 and 2.5 ng ml^− TGF-β in the presence of 1 μg ml^− anti-CD3 (plate bound) and 1 μg ml^− anti-CD28 (plate bound) for 4 days. When indicated, different concentrations of UA, KL001, other UA analogs or small molecules (dissolved in DMSO) were added at the beginning of Th17 differentiation. The mature Th17 cells were restimulated with 50 ng ml^− PMA (phorbol 12-myristate 13-acetate) and 500 ng ml^− inomycin in the presence of BD GolgiStop™ for 6 hrs, stained intracellularly for IL-17 and IL-17F, and then analyzed by flow cytometry.
UA and its analogs KL001 to KL005, 201702-1 to 201702-4, and 201509-1 to 201509-3 inhibit TH17 differentiation. Mouse naïve CD4+ T cells were cultured under Th17 polarizing condition in the presence of above chemicals (2-10 μM) or DMSO control (Ctrl) for 4 days and then restimulated for IL-17 and IL-17F staining (FIG. 1). […] The Journal of biological chemistry 286: 22707-22710 (2011), 2 μM UA inhibited ˜80% IL-17 expression and ˜50% IL-17F expression, both of which were reported to contribute TH17-mediated autoimmune diseases Yang, X. O., Chang, S. H., Park, H. et al. Regulation of inflammatory responses by IL-17F. The Journal of experimental medicine, 205: 1063-1075 (2008). […] (FIG. 1), whereas other UA analogs inhibited TH17 differentiation at a less degree (FIG. 1 and FIG. 6).

[2] = test system: experimental autoimmune encephalomyelitis (EAE); assay: MOG-induced EAE, preventative disease model; assay type: in vivo, mice; conditions: for IL-17 expression of T cells infiltrated into the central nerve system: 100 mg/kg i.p. every other day; for effect on EAE disease (in words): 100 mg/kg i.p. every other day after first MOG immunization
Description: (§1) MOG-induced Experimental Autoimmune Encephalomyelitis (EAE)—EAE induction were performed by immunizing mice twice with MOG35-55 peptide (amino acids 35-55; MEVGWYRSPFSROVHLYRNGK) emulsified in CFA followed by pertussis toxin injection with slight modifications, and analyzed as previously described. […] The Journal of biological chemistry 286: 22707-22710 (2011); Wang, X., et al. Transcription of Il17 and Il17f is controlled by conserved noncoding sequence 2. Immunity 36: 23-31 (2012). Briefly, the disease scores were assigned on a scale of 0-5 as follows: 0, none; 1, limp tail or waddling gait with tail tonicity; 2, wobbly gait; 3, hindlimb paralysis; 4, hindlimb and forelimb paralysis; 5, death.
The Journal of biological chemistry 286: 22707-22710 (2011).

[3] = test system: experimental autoimmune encephalomyelitis (EAE); assay: MOG-induced EAE, therapeutic disease model; assay type: in vivo, mice; conditions: ~250 mg/kg gavage twice daily from Day 9
Description: as §1
To test the therapeutic potential of KL001, EAE was first induced by MOG immunization and PTX injection as described.

[4] = test system: imiquimod (IMQ)-induced psoriasis; assay: IMQ-induced psoriasis, preventative disease model; assay type: in vivo, C57BL/6 mice; conditions: ~250 mg/kg gavage twice daily
Description: IMQ-induced psoriasis model—The mouse psoriasis model was induced according to previous described with minor modifications. van der Fits L, et al. (2009) Imiquimod-induced psoriasis-like skin inflammation in mice is mediated via the IL-23/IL-17 axis. J Immunol 182(9):5836-5845. Briefly, 7-9 weeks old female C57BL/6 mice were used to induce psoriasis. On day 0, the hair was removed from the dorsal skin of the mice after anaesthetizing with pentobarbital (˜0.2 ml/20 g body weight by i.p.). On day 1, psoriasis was induced […] by applying 62.5 mg 5% imiquimod cream to the dorsal skin after anaesthesia on a daily base. In the preventative disease model, KL001 (dissolved in 0.5% methylcellulose (MC)) or 0.5% MC (control group) was orally administrated into C57BL/6 mice by gavage at a dosage of ˜250 mg/kg body weight twice daily starting 2 days before induction of psoriasis (Day −2). The mice were then sacrificed on Day 5, and the skin tissues were then removed for H&E staining and mRNA expression analysis. […] The expression of Il17, Il17f and Rorc (encoding RORγt) were then quantified by realtime PCR and normalized to Actb gene by using the following primers: Actb, F: […]/R (SEQ ID NO.1): […] […]

Th17 cells [5] = conditions: previous studies (Xu et al. 2011); read-out: IC50 in inhibiting Th17 differentiation; cited from earlier work
STAT3 = STAT3 (Homo sapiens, UniProt P40763); conditions: previous studies; cited from earlier work
rodents = conditions: cited from earlier work
[6] = 2 μM, Th17 polarizing condition, 4 days

Sequence of STAT3 (P40763 whole entry, species assumed): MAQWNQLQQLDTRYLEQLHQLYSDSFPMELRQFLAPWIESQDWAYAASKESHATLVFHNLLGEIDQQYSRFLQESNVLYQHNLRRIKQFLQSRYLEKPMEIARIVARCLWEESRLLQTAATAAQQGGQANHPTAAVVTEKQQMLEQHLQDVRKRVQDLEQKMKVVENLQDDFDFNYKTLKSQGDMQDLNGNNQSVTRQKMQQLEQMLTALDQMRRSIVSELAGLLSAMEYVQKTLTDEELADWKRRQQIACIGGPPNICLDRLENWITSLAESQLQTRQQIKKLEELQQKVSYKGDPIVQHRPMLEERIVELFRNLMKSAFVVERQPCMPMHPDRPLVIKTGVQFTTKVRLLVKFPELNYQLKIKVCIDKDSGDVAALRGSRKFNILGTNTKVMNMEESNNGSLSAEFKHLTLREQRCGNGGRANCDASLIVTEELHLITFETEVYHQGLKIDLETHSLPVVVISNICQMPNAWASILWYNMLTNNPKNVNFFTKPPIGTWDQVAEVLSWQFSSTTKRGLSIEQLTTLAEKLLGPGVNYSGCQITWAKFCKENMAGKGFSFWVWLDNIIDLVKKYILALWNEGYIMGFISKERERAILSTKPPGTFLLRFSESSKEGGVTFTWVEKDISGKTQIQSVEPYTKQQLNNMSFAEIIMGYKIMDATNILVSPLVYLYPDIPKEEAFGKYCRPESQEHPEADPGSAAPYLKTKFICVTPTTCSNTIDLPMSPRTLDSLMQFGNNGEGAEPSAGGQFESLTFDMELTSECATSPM

Structure (SMILES) | inhibition of TH17 differentiation (in words) (Th17 cells [1]; 4 days) | IL-17 and IL-17F expression in Th17 cells (in words) (Th17 cells [1]) | IC50 (Th17 cells [1]; Mus musculus, CD4+ T, readout of IL-17 staining, titration, read-out: IC50 in inhibiting Th17 differentiation) [µM] | IL-17 expression of T cells infiltrated into the central nerve system [2] | effect on EAE disease (in words) [2] | effect on EAE disease (in words) [3] | reduction of average disease scores vs control group [3] [%] | psoriatic symptoms, redness and roughness of the skin (in words) [4] | expression of IL-17 in skin samples ([4]; mRNA) | inhibition of IL-17F expression (Th17 cells [1]; [6]) [%] | inhibition of IL-17 expression (Th17 cells [1]; [6]) [%] | IC50 (Th17 cells [5]) [µM] | concentration at which inhibitory activity on STAT3 was observed (STAT3) | acute toxicity LD50 (rodents; intraperitoneal injection (Lee et al. 2010)) [mg/kg] | acute toxicity LD50 (rodents; oral administration (Lee et al. 2010)) [mg/kg]
Cc1oc(=O)oc1COC(=O)[C@]12CC[C@@H](C)[C@H](C)[C@H]1C1=CC[C@@H]3[C@@]4(C)CC[C@H](O)C(C)(C)[C@@H]4CC[C@@]3(C)[C@]1(C)CC2 [KL001, (5-methyl-2-oxo-1,3-dioxol-4-yl)methyl (1S,2R,4aS,6aS,6bR,8aR,10S,12aR,12bR,14bS)-10-hydroxy-1,2,6a,6b,9,9,12a-heptamethyl-1,3,4,5,6,6a,6b,7,8,8a,9,10,11,12,12a,12b,13,14b-octadecahydropicene-4a(2H)-carboxylate] | comparable level to UA; also recorded: comparable efficacy with UA | inhibited | ~0.49 | significantly reduced | greater degree than UA; also recorded: ameliorated | significantly reduced the disease severity; also recorded: ameliorated | 50 | visually and greatly reduced; also recorded: ameliorated psoriatic symptoms | notably reduced | – | – | – | – | – | –
C[C@H]1[C@H](C)CC[C@]2(C(=O)O)CC[C@]3(C)C(=CC[C@@H]4[C@@]5(C)CC[C@H](O)C(C)(C)[C@@H]5CC[C@]43C)[C@H]12 [UA, ursolic acid, reference compound] | inhibit | inhibited | – | significantly reduced | ameliorated | did not affect; also recorded: but not UA, ameliorated | – | – | – | ~50 | ~80 | 0.68 | higher than 25 μM | > 637 | 8330
